Results: paper PMC7501296, “Rapid and direct control of target protein levels with VHL-recruiting dTAG molecules” (Nature Communications, 2020)
Values joined by “and” are separate entries in the source; they are usually repeats but may differ in a detail not shown here. Equal entries are not always repeated.

Key:
Type in all cases: cell-based
[1] = molecular target: T1, FKBP12^F36V-Nluc (Homo sapiens, UniProt P62942, F37V); test: FKBP12F36V-Nluc dual luciferase assay (293FT); conditions: 293FT, 24 h
T1 construct: expressed in transfected cells; host or cells: 293FT
How it was run: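 293FT cells expressing FKBP12^WT-Nluc or FKBP12^F36V-Nluc with Fluc were treated with compound for 24 h at 37 °C. Fluc, then Nluc, luminescence was read with Dual-Glo reagents. Values are DMSO-normalised Nluc/Fluc ratios.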

[2] = test system: PATU-8902 LACZ-FKBP12^F36V clone; test: Antiproliferation, PATU-8902 LACZ-FKBP12F36V clone, 3D-spheroid (CellTiter-Glo); conditions: 120 h
How it was run: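 Viability of cells grown as ultra-low adherent 3D-spheroids was determined with the CellTiter-Glo reagent (Promega). Luminescence was read on either an Envision 2104 plate reader (PerkinElmer) or a Fluostar Omega Reader (BMG Labtech). The resulting data were analyzed with GraphPad PRISM v8.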

[3] = test system: PATU-8902 FKBP12^F36V-KRAS^G12V; KRAS^-/- clone; test: Antiproliferation, PATU-8902 FKBP12F36V-KRASG12V; KRAS-/- clone, 3D-spheroid (CellTiter-Glo); conditions: FKBP12F36V-KRASG12V, KRAS-/-, 3D-spheroid, 120 h
How it was run: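 Viability of cells grown as ultra-low adherent 3D-spheroids was determined with CellTiter-Glo (Promega). Luminescence readings were taken on an Envision 2104 plate reader (PerkinElmer) and a Fluostar Omega Reader (BMG Labtech), and the resulting data were processed in GraphPad PRISM v8 to assess effects on cell proliferation.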

[4] = test system: PATU-8902 LACZ-FKBP12^F36V clone; test: Antiproliferation, PATU-8902 LACZ-FKBP12F36V clone, 2D-monolayer (CellTiter-Glo)
How it was run: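 Viability of cells grown as 2D-adherent monolayers was determined with the CellTiter-Glo luminescent reagent (Promega). Luminescence signals were read on either an Envision 2104 plate reader (PerkinElmer) or a Fluostar Omega Reader (BMG Labtech), and the resulting data were processed and analyzed in GraphPad PRISM v8 software.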

[5] = test system: PATU-8902 FKBP12^F36V-KRAS^G12V; KRAS^-/- clone; test: Antiproliferation, PATU-8902 FKBP12F36V-KRASG12V; KRAS-/- clone, 2D-monolayer (CellTiter-Glo)
[6] = log10[compound] (M) -5.69897, single replicates
[7] = log10[compound] (M) -6.19897, single replicates
[8] = log10[compound] (M) -6.69897, single replicates
[9] = log10[compound] (M) -7.19897, single replicates
[10] = log10[compound] (M) -7.69897, single replicates
[11] = log10[compound] (M) -8.19897, single replicates
[12] = log10[compound] (M) -8.69897, single replicates
[13] = log10[compound] (M) -9.19897, single replicates
[14] = log10[compound] (M) -9.69897, single replicates
[15] = log10[compound] (M) -10.199, single replicates
[16] = log10[compound] (M) -5.69897, replicate values
[17] = log10[compound] (M) -6.19897, replicate values
[18] = log10[compound] (M) -6.69897, replicate values
[19] = log10[compound] (M) -7.19897, replicate values
[20] = log10[compound] (M) -7.69897, replicate values
[21] = log10[compound] (M) -8.19897, replicate values
[22] = log10[compound] (M) -8.69897, replicate values
[23] = log10[compound] (M) -9.19897, replicate values
[24] = log10[compound] (M) -9.69897, replicate values
[25] = log10[compound] (M) -10.199, replicate values

T1 sequence (P62942 2-108 F37V limits assumed): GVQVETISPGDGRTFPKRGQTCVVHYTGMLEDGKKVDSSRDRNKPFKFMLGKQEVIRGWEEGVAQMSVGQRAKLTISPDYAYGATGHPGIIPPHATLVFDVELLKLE

SMILES: CCC(C(=O)N1CCCCC1C(=O)OC(CCc1ccc(OC)c(OC)c1)c1ccccc1OCC(=O)NCCCCCCC(=O)NC(C(=O)N1CC(O)CC1C(=O)NC(C)c1ccc(-c2scnc2C)cc1)C(C)(C)C)c1cc(OC)c(OC)c(OC)c1 (centres unmarked) [dTAG^V-1-NEG]
- Degradation of FKBP12F36V-Nluc (in words) [1]: no activity
- DMSO-normalized antiproliferation [2, 6]: 68.4913 and 65.8862 and 68.8321 and 78.0465
- DMSO-normalized antiproliferation [2, 7]: 88.8571 and 103.865 and 101.246 and 98.2508
- DMSO-normalized antiproliferation [2, 8]: 91.2022 and 101.677 and 109.864 and 107.932
- DMSO-normalized antiproliferation [2, 9]: 113.68 and 101.811 and 126.495 and 101.479
- DMSO-normalized antiproliferation [2, 10]: 124.531 and 121.356 and 110.765 and 105.317
- DMSO-normalized antiproliferation [2, 11]: 119.921 and 92.6191 and 101.851 and 115.03
- DMSO-normalized antiproliferation [2, 12]: 108.505 and 98.1611 and 108.837 and 115.846
- DMSO-normalized antiproliferation [2, 13]: 113.362 and 108.537 and 123.253 and 101.067
- DMSO-normalized antiproliferation [2, 14]: 112.187 and 102.493 and 128.974 and 86.9201
- DMSO-normalized antiproliferation [2, 15]: 94.0987 and 98.1746 and 115.316 and 84.3777
- DMSO-normalized antiproliferation [3, 6]: 37.3931 and 26.551 and 27.3028 and 28.0546
- DMSO-normalized antiproliferation [3, 7]: 78.1886 and 92.1435 and 64.5511 and 70.1475
- DMSO-normalized antiproliferation [3, 8]: 103.503 and 85.567 and 103.938 and 98.1965
- DMSO-normalized antiproliferation [3, 9]: 124.063 and 123.712 and 110.481 and 131.998
- DMSO-normalized antiproliferation [3, 10]: 94.7496 and 116.061 and 121.718 and 128.178
- DMSO-normalized antiproliferation [3, 11]: 119.268 and 103.119 and 108.576 and 125.767
- DMSO-normalized antiproliferation [3, 12]: 120.883 and 119.814 and 120.521 and 105.703
- DMSO-normalized antiproliferation [3, 13]: 102.117 and 92.5221 and 111.366 and 98.8369
- DMSO-normalized antiproliferation [3, 14]: 88.1174 and 98.3023 and 99.984 and 124.954
- DMSO-normalized antiproliferation [3, 15]: 99.0429 and 90.8682 and 97.0717 and 101.855
- DMSO-normalized antiproliferation [4, 16]: 11.5867 and 14.0973 and 18.4019 and 18.5068
- DMSO-normalized antiproliferation [4, 17]: 63.5123 and 73.6517 and 63.5598 and 74.3207
- DMSO-normalized antiproliferation [4, 18]: 93.1863 and 113.355 and 96.7633 and 104.117
- DMSO-normalized antiproliferation [4, 19]: 100.081 and 106.556 and 105.951 and 130.27
- DMSO-normalized antiproliferation [4, 20]: 138.495 and 100.848 and 147.738 and 83.6486
- DMSO-normalized antiproliferation [4, 21]: 143.617 and 87.8737 and 136.886 and 159.708
- DMSO-normalized antiproliferation [4, 22]: 153.483 and 88.4456 and 121.366 and 127.155
- DMSO-normalized antiproliferation [4, 23]: 128.036 and 98.5375 and 110.326 and 91.7687
- DMSO-normalized antiproliferation [4, 24]: 126.211 and 97.7702 and 97.5063 and 90.8491
- DMSO-normalized antiproliferation [4, 25]: 118.887 and 87.4707 and 131.584 and 99.1889
- DMSO-normalized antiproliferation [5, 16]: 4.32 and 6.388 and 6.155 and 5.991
- DMSO-normalized antiproliferation [5, 17]: 32.3489 and 36.7324 and 47.9927 and 46.6785
- DMSO-normalized antiproliferation [5, 18]: 83.4764 and 91.9957 and 98.0856 and 85.7695
- DMSO-normalized antiproliferation [5, 19]: 140.095 and 133.654 and 96.5457 and 87.6299
- DMSO-normalized antiproliferation [5, 20]: 124.703 and 107.666 and 124.781 and 104.227
- DMSO-normalized antiproliferation [5, 21]: 100.524 and 126.087 and 110.25 and 83.3074
- DMSO-normalized antiproliferation [5, 22]: 126.672 and 110.141 and 94.4012 and 101.209
- DMSO-normalized antiproliferation [5, 23]: 119.782 and 117.251 and 170.771 and 120.652
- DMSO-normalized antiproliferation [5, 24]: 93.2126 and 100.867 and 84.0534 and 89.6654
- DMSO-normalized antiproliferation [5, 25]: 113.321 and 95.7713 and 117.376 and 100.982
